Drawing on patent US20160158184A1, “SELF-EMULSIFYING COMPOSITION OF OMEGA3 FATTY ACID” (priority 2013, published 2016), this text covers AUC0-2 and AUC0-24 for one molecule.

The nature of the series: Pharmacokinetics in beagles (Test Example 5). It counts as in vivo. Details: unit not given beside the values. Particulars: male beagles fasted 18 hours or more, oral, 600 mg of EPA-E, plasma EPA, corrected for pre-dose value. The method, then: The composition or the capsule prepared was orally administered to 6 male beagles (at the age of 2 to 6 years with the body weight of 8 to 13 kg, 3 Marshall beagles and 3 Nosan beagles) under fasting conditions, and blood EPA concentration was evaluated. The test animals were fasted 18 hours or more before the administration, and each animal was administered with the composition at an amount corresponding to 600 mg of the EPA-E. Blood was collected before the administration, and 0.5, 1, 1.5, 2, 3, 4, 6, 8, and 24 hours after the administration, and plasma was separated to measure plasma EPA concentration by LC/MS/MS (a method of separating a sample by liquid chromatography and separating the resultant components by mass spectrometry for measurement). The control group was administered with the EPA-E stock solution encapsulated in a capsule. […] In the calculation of each parameter, the value was corrected by subtracting the blood EPA concentration before the administration of the composition.

Structures are written as SMILES.

For `CC/C=C\C/C=C\C/C=C\C/C=C\C/C=C\CCCC(=O)OCC` [Comp. Ex. 5, Ethyl eicosapentaenoate ester], where the note is “0 to 2 hours”, the AUC0-2 is recorded as 11.3. The AUC0-24 (0 to 24 hours) is on record as 76.6.
